# Columns and labels:
# sebum production = conditions: administration of isotretinoin, current treatment; cited from earlier work
# ACAT/SOAT enzyme = assay: Measurement of ACAT/SOAT activity (NBD-cholesterol fluorescence assay in HepG2 cells); type: cell-based; conditions: NBD-cholesterol 1 μg/ml, incubation 6 h at 37° C., read-out: inhibition of cholesterol ester synthesis, IC50
# Excerpt: Measurement of ACAT/SOAT Activity:
# The objective of this test is to visualize the activity of the ACAT/SOAT enzyme on the synthesis of cholesterol esters.
# The test is based on the following publication: “Identification of ACAT1- and ACAT2-specific inhibitors using a novel, cell based fluorescence assay: individual ACAT uniqueness”, J. Lipid Res., (2004) vol. 45, pages 378-386.
# The principle of this test is based on the use of NBD-cholesterol, which is a cholesterol analogue of which the fluorescence is dependent on its environment. When said analogue is in a polar environment, it is weakly fluorescent, whereas in a non-polar environment, it is strongly fluorescent. Free NBD-cholesterol is localized in the cell membranes and is weakly fluorescent in this polar environment. When NBD-cholesterol is esterified by ACAT, the NBD-cholesterol ester is localized in non-polar lipid droplets and is therefore strongly fluorescent.
# HepG2 cells are incubated in the presence of NBD-cholesterol (1 μg/ml) and of the test product in transparent-bottomed black 96-well plates at a rate of 30 000 cells per well. […] After the addition of 50 μl of lysis buffer (10 mM NaPO4, 1% Igepal), the plates are shaken for 5 min and read by fluorescence (excitation 490 nm, emission 540 nm) on the Fusion instrument (Perkin Elmer).
# sebaceous glands = assay: Study of the properties of pactimibe: sebum production by the sebaceous glands
# [1] = Study of the properties of pactimibe: toxicity
IC50 (ACAT/SOAT enzyme),Structure (SMILES),decrease of sebum production (sebum production),side effects (sebum production),sebum production by the sebaceous glands (sebaceous glands),toxicity [1]
–,CC1=C(/C=C/C(C)=C/C=C/C(C)=C\C(=O)O)C(C)(C)CCC1 [isotretinoin],~90%,considerable side effects,–,–
50 nM,"CCCCCCCCN1CCc2c(C)c(CC(=O)O)c(C)c(NC(=O)C(C)(C)C)c21 [pactimibe, N-(1-octyl-5-carboxymethyl-4,6-dimethylindolin-7-yl)-2,2-dimethylpropanamide]",–,–,reduce sebum production,not toxic
